Assay results as given in article PMC8426238, “Synthesis and preclinical evaluation of [^11C]MTP38 as a novel PET ligand for phosphodiesterase 7 in the brain” (European Journal of Nuclear Medicine and Molecular Imaging, 2021).

Tests used:
Assay type in all cases: binding
Adenosine A2A = target: T1, Adenosine A2A (Homo sapiens, UniProt P29274); assay: off-target screen panel; details: Human recombinant, [^3H]CGS-21680
T1 construct: purchased Eurofins Panlabs Discovery Services (Taiwan)

Adrenergic α1A = target: T2, Adrenergic α1A (Rattus norvegicus, UniProt P43140); assay: off-target screen panel; details: Rat submaxillary gland, [^3H]Prazosin
T2 construct: purchased Eurofins Panlabs Discovery Services (Taiwan)

Adrenergic α1B = target: T3, Adrenergic α1B (Rattus norvegicus, UniProt P15823); assay: off-target screen panel; details: Rat liver, [^3H]Prazosin
T3 construct: purchased Eurofins Panlabs Discovery Services (Taiwan)

Adrenergic α2A = target: T4, Adrenergic α2A (Homo sapiens, UniProt P08913); assay: off-target screen panel; details: Human recombinant, [^3H]Rauwolscine
T4 construct: purchased Eurofins Panlabs Discovery Services (Taiwan)
T4 sequence (P08913 whole entry): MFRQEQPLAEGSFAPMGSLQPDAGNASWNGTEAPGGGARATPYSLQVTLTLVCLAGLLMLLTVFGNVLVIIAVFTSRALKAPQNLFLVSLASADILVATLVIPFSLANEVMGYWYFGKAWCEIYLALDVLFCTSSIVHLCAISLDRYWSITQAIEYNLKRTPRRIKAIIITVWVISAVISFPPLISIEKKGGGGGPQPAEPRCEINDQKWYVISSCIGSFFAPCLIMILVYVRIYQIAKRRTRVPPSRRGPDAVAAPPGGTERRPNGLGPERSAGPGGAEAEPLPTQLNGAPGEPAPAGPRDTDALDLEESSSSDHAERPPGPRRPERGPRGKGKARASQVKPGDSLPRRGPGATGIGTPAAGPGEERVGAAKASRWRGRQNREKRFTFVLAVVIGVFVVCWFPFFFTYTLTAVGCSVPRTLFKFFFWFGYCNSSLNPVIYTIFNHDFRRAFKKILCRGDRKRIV

Adrenergic β2 = target: T5, Adrenergic β2 (Homo sapiens, UniProt P07550); assay: off-target screen panel; details: Human recombinant, [^3H]CGP-12177
T5 construct: purchased Eurofins Panlabs Discovery Services (Taiwan)
T5 sequence (P07550 whole entry): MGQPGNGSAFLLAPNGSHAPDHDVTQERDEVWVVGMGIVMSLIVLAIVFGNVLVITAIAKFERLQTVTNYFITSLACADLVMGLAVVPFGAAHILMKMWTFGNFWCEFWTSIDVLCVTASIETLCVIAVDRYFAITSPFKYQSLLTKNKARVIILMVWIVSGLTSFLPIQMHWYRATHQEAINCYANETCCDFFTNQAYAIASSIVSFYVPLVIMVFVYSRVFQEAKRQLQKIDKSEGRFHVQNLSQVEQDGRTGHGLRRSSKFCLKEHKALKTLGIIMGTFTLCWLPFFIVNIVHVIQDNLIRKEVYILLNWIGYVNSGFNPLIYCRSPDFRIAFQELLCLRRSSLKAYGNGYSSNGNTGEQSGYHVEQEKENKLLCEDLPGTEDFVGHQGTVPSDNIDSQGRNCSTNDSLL

[1] = system: Calcium Channel L-Type, Benzothiazepine; assay: off-target screen panel; details: Rat brain, [^3H]Diltiazem
Cannabinoid CB1 = target: T6, Cannabinoid CB1 (Homo sapiens, UniProt P21554); assay: off-target screen panel; details: Human recombinant, [^3H]SR141716A
T6 construct: purchased Eurofins Panlabs Discovery Services (Taiwan)
T6 sequence (P21554 whole entry): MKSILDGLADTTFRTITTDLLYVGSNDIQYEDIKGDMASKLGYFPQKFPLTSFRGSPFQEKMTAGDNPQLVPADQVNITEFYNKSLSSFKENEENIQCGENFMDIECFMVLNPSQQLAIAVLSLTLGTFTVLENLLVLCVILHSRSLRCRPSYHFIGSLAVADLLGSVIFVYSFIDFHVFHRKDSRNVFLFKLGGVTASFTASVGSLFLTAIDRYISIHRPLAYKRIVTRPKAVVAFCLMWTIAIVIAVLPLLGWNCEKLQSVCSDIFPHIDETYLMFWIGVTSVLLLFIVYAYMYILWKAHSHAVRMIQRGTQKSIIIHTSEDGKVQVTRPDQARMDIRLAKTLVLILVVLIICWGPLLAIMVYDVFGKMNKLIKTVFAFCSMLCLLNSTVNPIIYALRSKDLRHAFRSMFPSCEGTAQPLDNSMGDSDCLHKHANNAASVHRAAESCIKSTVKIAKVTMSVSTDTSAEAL

Dopamine D2S = target: T7, Dopamine D2S (Homo sapiens, UniProt P14416); assay: off-target screen panel; details: Human recombinant, [^3H]Spiperone
T7 construct: purchased Eurofins Panlabs Discovery Services (Taiwan)

Dopamine D4.2 = target: T8, Dopamine D4.2 (Homo sapiens, UniProt P21917, DEL265-296); assay: off-target screen panel; details: Human recombinant, [^3H]Spiperone
T8 construct: purchased Eurofins Panlabs Discovery Services (Taiwan)
T8 sequence (P21917 with tags, fused parts or gaps DEL265-296): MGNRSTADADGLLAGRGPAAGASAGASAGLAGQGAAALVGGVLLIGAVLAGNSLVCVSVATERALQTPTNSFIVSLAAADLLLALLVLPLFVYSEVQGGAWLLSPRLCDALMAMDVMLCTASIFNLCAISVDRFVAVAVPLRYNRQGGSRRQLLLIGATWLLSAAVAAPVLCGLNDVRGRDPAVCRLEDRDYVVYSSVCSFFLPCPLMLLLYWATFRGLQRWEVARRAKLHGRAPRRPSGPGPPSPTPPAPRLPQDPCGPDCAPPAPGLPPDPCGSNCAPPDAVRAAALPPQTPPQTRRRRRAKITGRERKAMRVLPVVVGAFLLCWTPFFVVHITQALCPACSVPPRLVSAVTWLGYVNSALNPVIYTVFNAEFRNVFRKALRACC

Endothelin ETB = target: T9, Endothelin ETB (Homo sapiens, UniProt P24530); assay: off-target screen panel; details: Human recombinant, [^125I]Endothelin-1
T9 construct: purchased Eurofins Panlabs Discovery Services (Taiwan)

[2] = system: GABAA, Flunitrazepam, Central; assay: off-target screen panel; details: Rat brain (minus cerebellum), [^3H]Flunitrazepam
GABAA, Muscimol, Central = assay: off-target screen panel; details: Rat brain (minus cerebellum), [^3H]Muscimol
GABAB1A = target: T10, GABAB1A (Homo sapiens, UniProt Q9UBS5); assay: off-target screen panel; details: Human recombinant, [^3H]CGP-54626
T10 construct: purchased Eurofins Panlabs Discovery Services (Taiwan)

Glutamate, Kainate = assay: off-target screen panel; details: Rat brain cortex, [^3H]Kainic acid
Glutamate, NMDA, Glycine = Glutamate, NMDA, Glycine (Rattus norvegicus, UniProt P35439); assay: off-target screen panel; details: Rat cerebral cortex, [^3H]MDL 105,519
Sequence of Glutamate, NMDA, Glycine (P35439 394-800 limits assumed): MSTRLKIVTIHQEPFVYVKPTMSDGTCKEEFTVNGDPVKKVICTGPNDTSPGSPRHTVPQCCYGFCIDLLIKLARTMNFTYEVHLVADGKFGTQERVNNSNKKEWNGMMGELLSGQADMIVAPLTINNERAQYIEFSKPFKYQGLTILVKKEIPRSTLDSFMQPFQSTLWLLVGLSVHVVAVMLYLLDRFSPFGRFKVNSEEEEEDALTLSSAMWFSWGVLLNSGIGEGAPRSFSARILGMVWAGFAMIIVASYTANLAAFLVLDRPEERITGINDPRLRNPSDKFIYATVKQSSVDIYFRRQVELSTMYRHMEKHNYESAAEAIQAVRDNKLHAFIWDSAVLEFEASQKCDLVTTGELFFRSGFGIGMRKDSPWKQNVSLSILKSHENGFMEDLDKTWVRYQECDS

Histamine H2 = target: T11, Histamine H2 (Homo sapiens, UniProt P25021); assay: off-target screen panel; details: Human recombinant, [^125I]Aminopotentidine
T11 construct: purchased Eurofins Panlabs Discovery Services (Taiwan)

Histamine H3 = target: T12, Histamine H3 (Homo sapiens, UniProt Q9Y5N1); assay: off-target screen panel; details: Human recombinant, [^3H]N-α-Methylhistamine
T12 construct: purchased Eurofins Panlabs Discovery Services (Taiwan)

Interleukin IL-1 R1 = target: T13, Interleukin IL-1 R1 (Homo sapiens, UniProt P14778); assay: off-target screen panel; details: Human recombinant, [^125I]Interleukin-1β
T13 construct: purchased Eurofins Panlabs Discovery Services (Taiwan)
T13 sequence (P14778 18-569): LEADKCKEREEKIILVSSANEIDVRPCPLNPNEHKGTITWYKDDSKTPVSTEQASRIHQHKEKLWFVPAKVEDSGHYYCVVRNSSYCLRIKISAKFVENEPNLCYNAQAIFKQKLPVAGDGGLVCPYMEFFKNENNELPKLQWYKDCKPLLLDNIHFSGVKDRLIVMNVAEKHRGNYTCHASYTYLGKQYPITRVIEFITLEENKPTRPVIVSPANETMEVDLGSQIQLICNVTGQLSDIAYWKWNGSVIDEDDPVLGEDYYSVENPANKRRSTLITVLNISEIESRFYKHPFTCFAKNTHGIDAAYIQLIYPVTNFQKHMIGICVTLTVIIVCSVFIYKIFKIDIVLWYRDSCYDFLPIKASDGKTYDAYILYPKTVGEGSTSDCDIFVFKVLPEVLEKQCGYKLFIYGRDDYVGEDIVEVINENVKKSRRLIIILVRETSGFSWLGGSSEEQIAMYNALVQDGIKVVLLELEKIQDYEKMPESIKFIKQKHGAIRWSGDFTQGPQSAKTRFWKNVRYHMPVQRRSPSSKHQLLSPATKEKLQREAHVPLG

[3] = target: T14, Leukotriene, Cysteinyl CysLT1 (Homo sapiens, UniProt Q9Y271); assay: off-target screen panel; details: Human recombinant, [^3H]LTD4
T14 construct: purchased Eurofins Panlabs Discovery Services (Taiwan)

Melatonin MT1 = target: T15, Melatonin MT1 (Homo sapiens, UniProt P48039); assay: off-target screen panel; details: Human recombinant, [^125I]2-Iodomelatonin
T15 construct: purchased Eurofins Panlabs Discovery Services (Taiwan)

Neuropeptide Y Y1 = target: T16, Neuropeptide Y Y1 (Homo sapiens, UniProt P25929); assay: off-target screen panel; details: Human SK-N-MC cells, [^125I]Peptide YY
T16 construct: purchased Eurofins Panlabs Discovery Services (Taiwan)

Neuropeptide Y Y2 = target: T17, Neuropeptide Y Y2 (Homo sapiens, UniProt P49146); assay: off-target screen panel; details: Human KAN-TS cells, [^125I]Peptide YY
T17 construct: purchased Eurofins Panlabs Discovery Services (Taiwan)

Nicotinic Acetylcholine = assay: off-target screen panel; details: Human IMR-32 cells, [^125I]Epibatidine
[4] = target: T18, Nicotinic Acetylcholine α1, Bungarotoxin (Homo sapiens, UniProt P02708+P07510+Q07001); assay: off-target screen panel; details: read-out: Inhibition (%) at 1 μM
T18 construct: purchased Eurofins Panlabs Discovery Services (Taiwan)

Opiate κ (OP2, KOP) = target: T19, Opiate κ (OP2, KOP) (Homo sapiens, UniProt P41145); assay: off-target screen panel; details: Human recombinant, [^3H]Diprenorphine
T19 construct: purchased Eurofins Panlabs Discovery Services (Taiwan)

Phorbol Ester = assay: off-target screen panel; details: Mouse brain, [^3H]PDBu
hERG potassium channel = target: T20, hERG potassium channel (Homo sapiens, UniProt Q12809); assay: off-target screen panel; details: human recombinant hERG potassium channel, probe [^3H]Astemizole
T20 construct: purchased Eurofins Panlabs Discovery Services (Taiwan)
T20 sequence (Q12809 whole entry): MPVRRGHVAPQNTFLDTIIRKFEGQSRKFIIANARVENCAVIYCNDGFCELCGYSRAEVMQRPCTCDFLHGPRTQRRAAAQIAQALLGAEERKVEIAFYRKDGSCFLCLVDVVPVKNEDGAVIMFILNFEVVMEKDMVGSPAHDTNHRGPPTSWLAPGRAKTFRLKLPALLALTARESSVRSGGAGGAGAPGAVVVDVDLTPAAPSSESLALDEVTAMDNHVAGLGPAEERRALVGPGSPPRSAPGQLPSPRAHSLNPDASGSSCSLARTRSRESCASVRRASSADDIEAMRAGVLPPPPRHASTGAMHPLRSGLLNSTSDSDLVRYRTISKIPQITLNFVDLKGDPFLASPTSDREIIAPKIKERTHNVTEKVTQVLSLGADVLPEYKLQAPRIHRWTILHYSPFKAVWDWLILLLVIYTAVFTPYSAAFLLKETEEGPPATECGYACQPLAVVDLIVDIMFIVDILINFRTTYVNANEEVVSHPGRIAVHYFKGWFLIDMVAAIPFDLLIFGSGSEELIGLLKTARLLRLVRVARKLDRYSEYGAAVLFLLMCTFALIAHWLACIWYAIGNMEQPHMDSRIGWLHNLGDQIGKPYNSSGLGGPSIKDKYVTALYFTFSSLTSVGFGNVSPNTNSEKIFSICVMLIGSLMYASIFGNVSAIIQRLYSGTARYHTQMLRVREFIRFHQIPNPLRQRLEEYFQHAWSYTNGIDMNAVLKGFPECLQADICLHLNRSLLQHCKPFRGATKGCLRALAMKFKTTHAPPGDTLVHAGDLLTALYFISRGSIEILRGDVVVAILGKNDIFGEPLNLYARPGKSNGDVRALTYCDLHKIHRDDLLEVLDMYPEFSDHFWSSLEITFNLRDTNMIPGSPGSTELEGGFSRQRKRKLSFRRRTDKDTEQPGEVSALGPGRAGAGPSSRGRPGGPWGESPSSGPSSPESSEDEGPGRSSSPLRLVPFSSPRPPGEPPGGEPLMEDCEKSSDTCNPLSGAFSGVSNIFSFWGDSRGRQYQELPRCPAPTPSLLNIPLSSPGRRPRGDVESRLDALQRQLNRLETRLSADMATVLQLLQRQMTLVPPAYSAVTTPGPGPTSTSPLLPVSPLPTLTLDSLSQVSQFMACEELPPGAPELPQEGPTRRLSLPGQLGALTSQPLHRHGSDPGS

Prostanoid EP4 = target: T21, Prostanoid EP4 (Homo sapiens, UniProt P35408); assay: off-target screen panel; details: Human recombinant, [^3H]Prostaglandin E2 (PGE2)
T21 construct: purchased Eurofins Panlabs Discovery Services (Taiwan)
T21 sequence (P35408 whole entry): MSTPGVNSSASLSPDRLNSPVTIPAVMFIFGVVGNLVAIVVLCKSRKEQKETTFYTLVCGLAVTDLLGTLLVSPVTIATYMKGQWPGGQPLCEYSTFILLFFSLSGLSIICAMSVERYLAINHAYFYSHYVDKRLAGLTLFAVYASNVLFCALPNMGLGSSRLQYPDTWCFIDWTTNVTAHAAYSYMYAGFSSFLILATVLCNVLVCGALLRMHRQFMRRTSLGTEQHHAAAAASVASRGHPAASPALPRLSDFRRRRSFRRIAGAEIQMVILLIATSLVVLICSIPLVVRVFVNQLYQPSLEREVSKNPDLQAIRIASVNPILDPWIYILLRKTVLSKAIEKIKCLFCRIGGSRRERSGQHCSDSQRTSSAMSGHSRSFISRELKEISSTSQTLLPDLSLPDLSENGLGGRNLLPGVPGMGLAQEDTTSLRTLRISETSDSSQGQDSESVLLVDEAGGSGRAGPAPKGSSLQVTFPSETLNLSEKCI

Purinergic P2X = assay: off-target screen panel; details: Rabbit urinary bladder, [^3H]α, β-Methylene-ATP
PDE4 = assay: off-target screen panel; details: Rat brain, [^3H]Rolipram
[5] = target: T22, Serotonin (5-Hydroxytryptamine) 5-HT2B (Homo sapiens, UniProt P41595); assay: off-target screen panel; details: Human recombinant, [^3H]Lysergic acid diethylamide (LSD)
T22 construct: purchased Eurofins Panlabs Discovery Services (Taiwan)
T22 sequence (P41595 whole entry): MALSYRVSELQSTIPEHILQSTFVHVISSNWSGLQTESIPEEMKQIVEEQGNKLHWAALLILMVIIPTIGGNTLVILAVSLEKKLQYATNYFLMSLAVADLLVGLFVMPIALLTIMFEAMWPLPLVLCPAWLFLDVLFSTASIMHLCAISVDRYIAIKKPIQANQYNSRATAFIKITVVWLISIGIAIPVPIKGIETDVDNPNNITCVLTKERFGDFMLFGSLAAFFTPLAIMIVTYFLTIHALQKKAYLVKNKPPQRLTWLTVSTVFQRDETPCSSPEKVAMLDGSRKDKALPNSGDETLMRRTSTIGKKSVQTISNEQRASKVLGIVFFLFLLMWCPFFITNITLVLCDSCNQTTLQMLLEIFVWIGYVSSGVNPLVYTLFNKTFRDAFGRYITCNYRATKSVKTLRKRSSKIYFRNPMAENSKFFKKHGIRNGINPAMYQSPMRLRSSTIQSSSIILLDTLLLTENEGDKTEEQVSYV

[6] = target: T23, Serotonin (5-Hydroxytryptamine) 5-HT3 (Homo sapiens, UniProt P46098); assay: off-target screen panel; details: Human recombinant, [^3H]GR-65630
T23 construct: purchased Eurofins Panlabs Discovery Services (Taiwan)

Sodium Channel, Site 2 = assay: off-target screen panel; details: Rat brain, [^3H]Batrachotoxinin
Thyroid Hormone = assay: off-target screen panel; details: Rat liver, [^125I]Triiodothyronine
[7] = target: T24, Transporter, Dopamine (DAT) (Homo sapiens, UniProt Q01959); assay: off-target screen panel; details: Human recombinant, [^125I]RTI-55
T24 construct: purchased Eurofins Panlabs Discovery Services (Taiwan)

Transporter, GABA = assay: off-target screen panel; details: Rat cerebral cortex, [^3H]GABA
67 non-PDE molecules = assay: off-target screen panel, overall statement; details: all 67 non-PDE molecules of the panel

## C[C@@H]1CC[C@H](C)N(c2nnc3c(N)ncc(C#N)n23)C1 (relative stereo) [MTP38, 8-amino-3-(2S*,5R*-dimethyl-1-piperidyl)-[1,2,4]triazolo[4,3-a]pyrazine-5-carbonitrile]
Adenosine A2A
  inhibition at 1 µM: 4%
Adrenergic α1A
  inhibition at 1 µM: 8%
Adrenergic α1B
  inhibition at 1 µM: -3%
Adrenergic α2A
  inhibition at 1 µM: 4%
Adrenergic β2
  inhibition at 1 µM: -14%
[1]
  Inhibition (%) at 1 μM: 16%
Cannabinoid CB1
  inhibition at 1 µM: -6%
Dopamine D2S
  inhibition at 1 µM: 4%
Dopamine D4.2
  inhibition at 1 µM: -3%
Endothelin ETB
  inhibition at 1 µM: 3%
[2]
  Inhibition (%) at 1 μM: -2%
GABAA, Muscimol, Central
  Inhibition (%) at 1 μM: -10%
GABAB1A
  inhibition at 1 µM: -10%
Glutamate, Kainate
  Inhibition (%) at 1 μM: -2%
Glutamate, NMDA, Glycine
  inhibition at 1 µM: -15%
Histamine H2
  inhibition at 1 µM: -9%
Histamine H3
  inhibition at 1 µM: 9%
Interleukin IL-1 R1
  inhibition at 1 µM: -5%
[3]
  inhibition at 1 µM: 4%
Melatonin MT1
  inhibition at 1 µM: 7%
Neuropeptide Y Y1
  inhibition at 1 µM: -13%
Neuropeptide Y Y2
  inhibition at 1 µM: 6%
Nicotinic Acetylcholine
  Inhibition (%) at 1 μM: -8%
[4]
  inhibition at 1 µM: 15%
Opiate κ (OP2, KOP)
  inhibition at 1 µM: 9%
Phorbol Ester
  Inhibition (%) at 1 μM: -7%
hERG potassium channel
  inhibition at 1 µM: 17%
Prostanoid EP4
  inhibition at 1 µM: 8%
Purinergic P2X
  Inhibition (%) at 1 μM: -3%
PDE4
  Inhibition (%) at 1 μM: 74%
[5]
  inhibition at 1 µM: -1%
[6]
  inhibition at 1 µM: -11%
Sodium Channel, Site 2
  Inhibition (%) at 1 μM: 1%
Thyroid Hormone
  Inhibition (%) at 1 μM: 7%
[7]
  inhibition at 1 µM: 22%
Transporter, GABA
  Inhibition (%) at 1 μM: -2%
67 non-PDE molecules
  inhibitions at 1 μM of the 67 non-PDE molecules tested: less than 50%
